Where two headings read alike, the source gives them in different places.
Experiments:
mTOR = mTOR vs p97, dose titration
[1] = test system: HEK293 cells expressing GFPu; assay: cells; settings: Homo sapiens, HEK293, read-out: EC50, accumulation of GFPu
DNA-PK [2] = target: T1, DNA-PK (Homo sapiens, UniProt P78527); settings: DNA-PK vs p97, dose titration
[3] = all dosing schedules tested, tumor-bearing mice, po
DNA-PK [4] = target: T1, DNA-PK; settings: A549 cells, 6 hr, nuclear phospho-H2AX
HCT116 xenograft tumors = settings: 100 mg/kg single oral dose, 6 hr, nude mice
[5] = test system: HEK293T cells stably expressing TCRα-GFP; assay: cells; settings: Homo sapiens, HEK-293T, read-out: EC50, accumulation of TCRα-GFP
AMO-1 = assay: cells; settings: Homo sapiens, AMO1, read-out: IC50 in vitro, AMO-1
HCT 116 T688A xenografts = settings: 90 mg/kg
A549 cells [6] = assay: cells; settings: Homo sapiens, A549, read-out: EC50, induction of CHOP protein
PIK3C3 = PIK3C3 vs p97, dose titration
350 cancer cell lines = assay: cells; settings: 72 h
HCT116 or A549 tumors = settings: single administration, nude mice bearing HCT116 or A549 tumors
AMO-1 xenograft = settings: after 2 cycles of treatment, qd4/3off
A549 cells [7] = assay: p62 modulation by immunofluorescence; format: cell-based

Cc1cc2c(C(N)=O)cccc2n1-c1nc2c(c(NCc3ccccc3)n1)COCC2 [CB-5083, 1-[4-(benzylamino)-5H,7H,8H-pyrano[4,3-d]pyrimidin-2-yl]-2-methyl-1H-indole-4-carboxamide]
fold less affinity compared to p97 (mTOR): 128 fold | EC50 [1]: 1050 nM | tumor growth inhibition (TGI) (HCT116 xenograft; 50 mg/kg po, qd): 62% | tumor growth inhibition (TGI) (HCT116 xenograft; 100 mg/kg po, qd4/3off): 78% | fold less affinity compared to p97 (DNA-PK [2]): 29.6 fold | weight loss [3]: < 10% | inhibition of DNA-PK in cell-based assay (DNA-PK [4]): not to inhibit DNA-PK at concentrations that caused cell death | decrease of p62 protein levels in tumor (HCT116 xenograft tumors): 60% | EC50 [5]: 730 nM | IC50 (AMO-1): 81 nM | tumor growth of T688A mutant model (HCT 116 T688A xenografts): not inhibited | EC50 (A549 cells [6]): 1190 nM | fold less affinity compared to p97 (PIK3C3): 158 fold | EC50 (350 cancer cell lines; read-out: EC50 of cell viability, lower end of range in panel): ≥ 81 nM | EC50 (350 cancer cell lines; read-out: EC50 of cell viability, upper end of range in panel): ≤ 2100 nM | accumulation of poly-ubiquitin or CHOP in tumor tissue (HCT116 or A549 tumors): strong and sustained induction of polyubiquitin | complete regressions of tumors (animals) (AMO-1 xenograft): 6/12 | effect on p62 levels (A549 cells [7]): rapidly cleared from cells

CC(C)n1nc(-c2ccc3oc(N)nc3c2)c2c(N)ncnc21 [INK-128]
effect on p62 levels (A549 cells [7]): decrease in p62 levels

Cc1cc(OCc2nnc(SC3CCCC3)n2-c2cccnc2)ccc1-c1ccc(S(C)(=O)=O)cc1 [NMS-873]
effect on p62 levels (A549 cells [7]): decreases in p62 levels

CO/C1=C\C(C)=C\[C@@H](C)[C@@H](O)[C@@H](C)C/C(C)=C/C=C/[C@H](OC)[C@@H]([C@@H](C)[C@@H](O)[C@H](C)[C@@]2(O)C[C@@H](O)[C@H](C)[C@@H](C(C)C)O2)OC1=O [bafilomycin A1]
effect on p62 levels (A549 cells [7]): accumulation of p62 in peri-nuclear foci

CC(C)C[C@H](NC(=O)[C@H](Cc1ccccc1)NC(=O)c1cnccn1)B(O)O [bortezomib]
effect on p62 levels (A549 cells [7]): decreases in p62 levels
